From patent publication US5008290A, “Sulphonamidoethyl compounds and pharmaceutical compositions comprising these compounds” (Dr. Karl Thomae GmbH, priority 1986, dated 1991)
pEC50: −log10 of the molar value.

Assays:
[1] = test system: platelet-rich plasma of healthy test subjects; assay: Antithrombotic activity: collagen-induced thrombocyte aggregation (BORN and CROSS method); format: cell-based; settings: Homo sapiens, 10 min, plasma incubated for 10 minutes with the substance at 37° C., read-out: EC50 (50% change in the "optical density" in terms of an inhibition of aggregation)
Protocol: Thrombocyte aggregation is measured using the BORN and CROSS method (J. Physiol. 170, 397 (1964)) in the platelet-rich plasma of healthy test subjects. To inhibit coagulation, 3.14% sodium citrate is added to the blood in a ratio by volume of 1:10.
The pattern of the decrease in optical density of the platelet suspension is photometrically measured and recorded after the addition of aggregation-inducing substance. The rate of aggregation is determined from the angle of inclination of the density curve. The point on the curve at which there is maximum transmittance is used to calculate the "optical density".
The quantity of collagen is kept as small as possible but sufficient to produce an irreversible reaction curve. The standard commercial collagen produced by Hormonchemie of Munich is used. Before the addition of collagen, the plasma is incubated for 10 minutes with the substance at 37° C.
From the measurements obtained, an EC50 is determined graphically, showing a 50% change in the "optical density" in terms of an inhibition of aggregation.

mice = assay: Acute toxicity after oral administration of a single dose; format: in vivo; settings: observation period 14 days; for animals died (mortality): single dose 500 mg/kg; for Approximate acute toxicity: single dose, groups of 10
Protocol: The acute toxicity of the substances being tested was determined approximately in groups of 10 mice after oral administration of a single dose (observation period 14 days): […]

## Cn1c(CCNS(=O)(=O)c2ccccc2)ccc1C(=O)CCC(=O)O [Substance A, 4-[2-(2-Benzenesulphonylamino-ethyl)-1-methylpyrrol-5-yl]-4-oxybutyric acid]
[1]
  pEC50: 5.46
mice
  animals died (mortality): 0 out of 10 animals
  Approximate acute toxicity: 500 mg/kg

## Cn1c(CCNS(=O)(=O)c2ccc(Cl)cc2)ccc1C(=O)CCC(=O)O [Substance B, 4-[2-(2-(p-chlorobenzenesulphonylamino)-ethyl)-1-methylpyrrol-5-yl]-4-oxybutyric acid]
[1]
  pEC50: 6.40
mice
  animals died (mortality): 0 out of 10 animals
  Approximate acute toxicity: 500 mg/kg

## Cn1c(CCNS(=O)(=O)c2cccs2)ccc1C(=O)CCC(=O)O [Substance C, 4-[2-(2-thiophen-2-yl-sulphonylamino-ethyl)-1-methylpyrrol-5-yl]-4-oxybutyric acid]
[1]
  pEC50: 6.41
mice
  animals died (mortality): 0 out of 10 animals
  Approximate acute toxicity: 500 mg/kg

## Cn1c(CCNS(=O)(=O)c2ccc(F)cc2)ccc1C(=O)CCC(=O)O [Substance D, 4-[2-(2-(p-Fluorobenzenesulphonylamino)-ethyl)-1-methylpyrrol-5-yl]-4-oxybutyric acid]
[1]
  pEC50: 6.44
mice
  animals died (mortality): 0 out of 10 animals
  Approximate acute toxicity: 500 mg/kg

## Cn1c(CCNS(=O)(=O)c2ccccc2)ccc1C1=NNC(=O)CC1 [Substance E, 6-[2-(2-Benzenesulphonylamino-ethyl)-1-methylpyrrol-5-yl]-4,5-dihydro-3(2H)-pyridazinone]
[1]
  pEC50: 5.54
mice
  animals died (mortality): 0 out of 10 animals
  Approximate acute toxicity: 500 mg/kg
